“And” between values parts separate entries of the source, which are not always exact repeats. Equal entries are not always repeated. Where two headings read alike, the source gives them in different places. A value given as a limit tells only on which side of the number the result lay.

Assay [1] has as its target T1, LTA4-h (Homo sapiens, UniProt P09960).
T1 sequence (P09960 1-611): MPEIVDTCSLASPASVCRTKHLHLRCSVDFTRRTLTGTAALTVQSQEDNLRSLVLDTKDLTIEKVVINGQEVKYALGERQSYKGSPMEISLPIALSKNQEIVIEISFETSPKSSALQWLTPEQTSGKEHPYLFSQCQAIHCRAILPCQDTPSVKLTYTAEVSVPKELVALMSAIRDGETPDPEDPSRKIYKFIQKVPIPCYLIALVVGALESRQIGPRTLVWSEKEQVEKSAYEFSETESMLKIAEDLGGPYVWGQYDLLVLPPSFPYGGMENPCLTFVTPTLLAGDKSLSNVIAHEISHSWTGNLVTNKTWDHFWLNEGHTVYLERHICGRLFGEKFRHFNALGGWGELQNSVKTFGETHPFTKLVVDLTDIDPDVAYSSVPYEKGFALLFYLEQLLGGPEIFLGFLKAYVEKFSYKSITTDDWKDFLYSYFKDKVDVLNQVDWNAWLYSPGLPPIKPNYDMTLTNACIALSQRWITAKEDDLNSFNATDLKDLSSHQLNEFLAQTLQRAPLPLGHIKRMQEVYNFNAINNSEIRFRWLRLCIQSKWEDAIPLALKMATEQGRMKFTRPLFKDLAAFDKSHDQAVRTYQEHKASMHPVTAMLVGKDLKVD
Put plainly: peptidase (aminopeptidase) assay. In kind it is biochemical. The text has this:
Since LTA4-h hydrolase is grouped with the M1 family of zinc metalloproteases (see, Rudberg, P. C. et al., J. Biol. Chem. 2002, Vol. 277, page 1398-1404), the compounds of the invention can be tested in the standard hydrolase and peptidase assay to determine the compounds' kinetic constants for binding to LTA4-h hydrolase and for inhibiting LTB4 synthesis (see Askonas, L. J., et al., The Journal of Pharmacology and Experimental Therapeutics 2002, 300(2): 577-582; Penning, T. D., J. Med. Chem. 2000, 43(4): 721-735; Kull, F. et al., The Journal of Biological Chemistry 1999, 274 (49): 34683-34690, the contents of which are expressly incorporated by reference herein).
(§1) The whole blood and aminopeptidase assays were performed as described in Penning et al., J. Med. Chem. 2000, 43, 721-735, and Rudberg et al., J. Biol. Chem. Vol. 279, No. 26, Issue of June 25, pp. 27376-27382, 2004, the contents of each of which are expressly incorporated by reference herein. The hydrolase assay was performed as described in U.S. Pat. No. 7,737,145, the contents of which are expressly incorporated herein.

For assay [2], the target named is T1, LTA4-h. As to the kind of experiment: hydrolase assay. Format: biochemical.
From the text: The compounds of the invention can be tested for their ability to inhibit LTA4-h by various known assays and by assays described herein. For example, the compounds can be tested for their ability to inhibit LTA4-h activity by assaying the compounds in the hydrolase-homogeneous time resolved fluorescence assay. This assay, which is a two-step assay, measures the hydrolysis of […] by analyzing the amount of LTB4 produced. The first step involves the enzymatic conversion of […] and the second step involves the quantification of the […] formed with a homogeneous time resolved fluorescence assay.
as §1

In a further assay the target is T2, LTA4-h hydrolase (Homo sapiens, UniProt P09960).
T2 construct: whole blood assay using human, mouse, rat or dog whole blood; from tissue; host or cells: whole blood
T2 sequence (P09960 1-611): T1 sequence (P09960 1-611)
Put plainly: whole blood assay (WBA). Format: cell-based. Here is the method: Compounds of the invention can also be tested for their ability as inhibitors of LTA4-h hydrolase in the whole blood assay using human, mouse, rat or dog whole blood (see Penning, T. D. et al., J. Med. Chem. (2000), 43(4): 721-735 for a description of a human whole blood assay and a mouse whole blood assay, the contents of which are expressly incorporated herein).
as §1

The subject of assay [3] is ionophore-induced LTB4 production. The note with it: oral administration; rat peritoneum in vivo; cited from earlier work.
Assay [4] has the same test system. To be noted: oral administration; mouse blood ex vivo; cited from earlier work.
The next assay deals with cotton top tamarins. The note with it: eight weeks of treatment; cited from earlier work.

In the case of `CS(=O)(=O)c1ccc(-c2cnc3c(C#N)c(Nc4ccc(Oc5ccccc5)cc4)nn3c2)c([N+](=O)[O-])c1` [Compound 2], the figures for the IC50 on LTA4-h [1], against LTA4-h [2] and against LTA4-h hydrolase were 0.26 µM, 3.7 µM and greater than 7.2 µM, respectively.

`N#Cc1c(Nc2ccc(Oc3ccccc3)cc2)nn2cc(-c3cccc(C(=O)O)n3)cnc12` [Compound 11]: 0.27 µM corresponded to half-maximal inhibition against LTA4-h [1] (IC50).

Consider `CN(CCCOc1ccc(Cc2ccccc2)cc1)CCC(=O)O.Cl` [SC57461], for which the “inhibition of ionophore-induced LTB4 production” value in assay [3] and in assay [4] was “caused inhibition” throughout. For the same compound, the colitis symptoms result with cotton top tamarins was “significantly improved colitis symptoms”.

The compound “2-(4-phenoxyphenylamino)-3-cyano-6-(2-nitro-3-hydroxycarboxyphenyl)pyrazolo[1,5-a]pyrimidine [Compound 9]” gave an IC50 at LTA4-h [1] of 0.0033 µM. This compound also showed a Hydrolase % inhibition at LTA4-h [2] (at 1 uM) of 20% inhibition at 1 uM.

On to `N#Cc1c(Nc2ccc(Oc3ccccc3)cc2)nn2cc(C(=O)c3cc([N+](=O)[O-])ccc3O)cnc12` [Compound 4], for which the IC50 at LTA4-h [1] amounted to 1.7 µM. For the same compound, the inhibition at 3 µM at LTA4-h [2] stood at 48%.

As for `N#Cc1c(Nc2ccc(Oc3ccccc3)cc2)nn2cc(N)cnc12` [Compound 1], the results for the IC50 against LTA4-h [1], on LTA4-h [2] and against LTA4-h hydrolase were 0.28 µM, 1.5 µM and greater than 8.8 µM, respectively.

In the case of `N#Cc1c(Nc2ccc(Oc3ccccc3)cc2)nn2cc(C(=O)c3ccccc3O)cnc12` [Compound 5], the IC50 at LTA4-h [1] was 0.09 µM and 0.02 µM; against LTA4-h [2], 1.4 µM and 0.49 µM; against LTA4-h hydrolase, 4.9 µM and 3 µM.

Take `N#Cc1c(Nc2ccc(Oc3ccccc3)cc2)nn2cc(C(=O)c3cc(Cl)ccc3O)cnc12` [Compound 7]: the IC50 against LTA4-h [1] is 0.03 µM and 0.01 µM; against LTA4-h [2], 1.6 µM and 2.9 µM; at LTA4-h hydrolase, 4.6 µM and 3 µM.

In the case of `N#Cc1c(Nc2ccc(Oc3ccccc3)cc2)nn2cc(-c3ccc(C(=O)O)cn3)cnc12` [Compound 12], the IC50 against LTA4-h [1] came to 0.084 µM.

As for `N#Cc1c(Nc2ccc(Oc3ccccc3)cc2)nn2cc(-c3cc(C(=O)O)ccc3[N+](=O)[O-])cnc12` [Compound 3], the IC50 at LTA4-h [1] is 0.43 µM; against LTA4-h hydrolase, greater than 10 µM. Also, the inhibition at 3 µM against LTA4-h [2] came out at 39%.

In the case of `N#Cc1c(Nc2ccc(Oc3ccccc3)cc2)nn2cc(C(=O)c3cc(Cl)cc(Cl)c3O)cnc12` [Compound 6], half-maximal inhibition on LTA4-h [1] (IC50) was put at 0.96 µM. This compound also came in with an inhibition at 3 µM against LTA4-h [2] of 15%.

Take `N#Cc1c(Nc2ccc(Oc3ccccc3)cc2)nn2cc(-c3ccc(C(=O)O)cc3[N+](=O)[O-])cnc12` [Compound 10]: 0.12 µM corresponded to half-maximal inhibition against LTA4-h [1] (IC50). Moreover, the inhibition at 1 µM on LTA4-h [2] (at 1 uM) came out at 20%.
